Patent publication US20230295201A1 (Gilead Sciences, Inc., priority 2020, published 2023)
Read-outs that look alike come from different tables or passages of the source.

What was measured:
Type in all cases: cell-based
[1] = test system: DENV2 replicon; test: DENV-2 Huh-7 Rep EC50 (replicon luminescence); conditions: read-out: DENV-2 Huh-7 Rep EC50
Summary of the method: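 EC50 derived from luminescence dose-response, normalised to DMSO-only 0% inhibition wells, after 1.5 h with EnduRen substrate. Compounds were first exposed for 48 h at 37° C to DENV2 replicon Huh-7 cells (5,000/well).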

[2] = test system: HRV16; test: HRV16 HELA EC50 (cytopathic effect in H1-HeLa cells)
Summary of the method: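 Read-out is luminescent cell viability (CellTiter-Glo) after 96 h of infection at 33 °C, scaled between uninfected and infected-untreated wells. Before infection with titrated virus, compounds went onto H1-HeLa cells as triplicate 3-fold dilution series.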

[3] = test system: RSV A2; test: RSV NHBE EC50 (RSV A2 antiviral assay in normal human bronchial epithelial cells); conditions: NHBE cells, RSV A2, 4 days, read-out: RSV NHBE EC50
[4] = test system: RSV strain A2; test: RSV HEp-2 EC50 (infectious cytopathic cell protection assay); conditions: HEp-2 cells, RSV A2, 4 days, read-out: RSV HEp-2 EC50
Summary of the method: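 Percent inhibition of RSV-induced cytopathic effect came from remaining cell viability (CellTiter-Glo luminescence) after 4 days at 37° C. Compounds in 3-fold serial dilutions were exposed to an infectious mix of titered A2 virus and HEp-2 cells at 50,000/ml, with 0% and 100% inhibition control standards.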

[5] = Dengue virus, DENV2, Huh-7, 48 h, Huh-7 replicon cells, 48 hours
[6] = 96 h, H1-HeLa cells, 33° C., read-out: HRV16 HELA EC50
[7] = human respiratory syncytial virus, NHBE, 96 h
[8] = human respiratory syncytial virus, HEp-2, 96 h
[9] = H1-HeLa cells, 96 h, 33° C.; read-out: HRV16 HELA EC50
[10] = Dengue virus, DENV2, Huh-7, 48 h
[11] = human respiratory syncytial virus, 96 h

Compound	EC50 [1, 5] [µM]	EC50 [2, 6] [µM]	EC50 [3, 7] [µM]	EC50 [4, 8] [µM]	other results
C[C@H](NP(=O)(OC[C@@]1(C#N)O[C@@H](c2ccc3c(N)ncnn23)[C@H](O)[C@@H]1O)Oc1ccccc1)C(=O)OCC(CO)CO (stereo partly drawn) [Example 245, 3-hydroxy-2-(hydroxymethyl)propyl ((((2R,3S,4R,5S)-5-(4-aminopyrrolo[2,1-f][1,2,4]triazin-7-yl)-2-cyano-3,4-dihydroxytetrahydrofuran-2-yl)methoxy)(phenoxy)phosphoryl)-L-alaninate]	> 50	29	> 5	3.79	–
CC(C)OC(=O)[C@H](C)N[P@](=O)(OC[C@@]1(C#N)O[C@@H](c2ccc3c(N)ncnn23)[C@@H]2OC(=O)O[C@@H]21)Oc1ccccc1 [Example 236, isopropyl ((S)-(((3aS,4R,6S,6aS)-6-(4-aminopyrrolo[2,1-f][1,2,4]triazin-7-yl)-4-cyano-2-oxotetrahydrofuro[3,4-d][1,3]dioxol-4-yl)methoxy) (phenoxy)phosphoryl)-L-alaninate]	17.9	0.741	0.949	0.189	–
C[C@H](NP(=O)(OC[C@@]1(C#N)O[C@@H](c2ccc3c(N)ncnn23)[C@H](O)[C@@H]1O)Oc1ccccc1)C(=O)O[C@@H](C)C(N)=O (stereo partly shown) [Example 160]	–	–	–	–	EC50 ([1]; Huh-7 replicon cells, 48 hours): > 50 µM; EC50 [2, 9]: 29.1 µM; EC50 [3]: > 5 µM; EC50 [4]: 7.3 µM
CC(C)OC(=O)[C@H](C)NP(=O)(N[C@@H](C)C(=O)OC(C)C)OC[C@@]1(C#N)O[C@@H](c2ccc3c(N)ncnn23)[C@H](O)[C@@H]1O [Example 34]	–	–	–	–	EC50 [1, 10]: > 50 µM; EC50 [2, 9]: > 50 µM; EC50 [3, 11]: 2.84 µM; EC50 [4, 11]: 14 µM
CCCCCCCCCCCCCCCCOCCCNP(=O)(OC[C@@]1(C#N)O[C@@H](c2ccc3c(N)ncnn23)[C@H](O)[C@@H]1O)Oc1ccccc1 (stereo partly drawn) [Example 187, ((2R,3S,4R,5S)-5-(4-aminopyrrolo[2,1-f][1,2,4]triazin-7-yl)-2-cyano-3,4-dihydroxytetrahydrofuran-2-yl)methyl phenyl (3-(hexadecyloxy)propyl)phosphoramidate]	9.35	20.6	> 5	1.49	–
C[C@H](NP(=O)(OC[C@@]1(C#N)O[C@@H](c2ccc3c(N)ncnn23)[C@H](O)[C@@H]1O)Oc1ccccc1)C(=O)OC1CCOCC1 (single isomer, unassigned) [Example 56]	> 50	7.96	2.24	–	EC50 [4]: 4.17 µM
COC(=O)[C@H](C)NP(=O)(N[C@@H](C)C(=O)OC)OC[C@@]1(C#N)O[C@@H](c2ccc3c(N)ncnn23)[C@H](O)[C@@H]1O [Example 38]	–	–	–	–	EC50 [1, 10]: > 50 µM; EC50 [2, 9]: 20.9 µM; EC50 [3, 11]: 3.98 µM; EC50 [4, 11]: 3.51 µM
C[C@H](NP(=O)(OC[C@@]1(C#N)O[C@@H](c2ccc3c(N)ncnn23)[C@H](O)[C@@H]1O)Oc1ccccc1)C(=O)O[C@H]1CCN(C)C1 (stereo partly drawn) [Example 15, (S)-1-methylpyrrolidin-3-yl ((((2R,3S,4R,5S)-5-(4-aminopyrrolo[2,1-f][1,2,4]triazin-7-yl)-2-cyano-3,4-dihydroxytetrahydrofuran-2-yl)methoxy)(phenoxy)phosphoryl)-L-alaninate]	> 50	11.4	3.25	4.33	–
CC(C)[C@H](N)C(=O)OCCNP(=O)(OC[C@@]1(C#N)O[C@@H](c2ccc3c(N)ncnn23)[C@H](O)[C@@H]1O)Oc1ccccc1 (stereo partly drawn) [Example 131, (2S)-2-(((((2R,3S,4R,5S)-5-(4-aminopyrrolo[2,1-f][1,2,4]triazin-7-yl)-2-cyano-3,4-dihydroxytetrahydrofuran-2-yl)methoxy)(phenoxy)phosphoryl)amino)ethyl 2-amino-3-methylbutanoate]	> 50	1.81	0.636	0.315	–
CC[C@H](N[P@](=O)(OC[C@@]1(C#N)O[C@@H](c2ccc3c(N)ncnn23)[C@H](O)[C@@H]1O)Oc1ccccc1)C(=O)OC1CCCCC1 [Example 105]	–	–	–	–	EC50 ([1]; Huh-7 replicon cells, 48 hours): > 50 µM; EC50 [2, 9]: 16.9 µM; EC50 [3]: 2.02 µM; EC50 [4]: 3.44 µM
CC[C@H](NP(=O)(OC[C@@]1(C#N)O[C@@H](c2ccc3c(N)ncnn23)[C@H](O)[C@@H]1O)Oc1ccccc1)C(=O)OC1CCCC1 (stereo partly drawn) [Example 109, (2S)-cyclopentyl 2-(((((2R,3S,4R,5S)-5-(4-aminopyrrolo[2,1-f][1,2,4]triazin-7-yl)-2-cyano-3,4-dihydroxytetrahydrofuran-2-yl)methoxy)(phenoxy)phosphoryl)amino)butanoate]	> 50	2.49	0.452	1.07	–
C[C@H](NP(=O)(OC[C@@]1(C#N)O[C@@H](c2ccc3c(N)ncnn23)[C@H](O)[C@@H]1O)Oc1ccccc1)C(=O)OC1CCOCC1 (stereo partly drawn) [Example 55, tetrahydro-2H-pyran-4-yl ((((2R,3S,4R,5S)-5-(4-aminopyrrolo[2,1-f][1,2,4]triazin-7-yl)-2-cyano-3,4-dihydroxytetrahydrofuran-2-yl)methoxy)(phenoxy)phosphoryl)-L-alaninate]	> 50	6.91	4.29	0.57	–
C[C@H](NP(=O)(OC[C@@]1(C#N)O[C@@H](c2ccc3c(N)ncnn23)[C@H](O)[C@@H]1O)Oc1ccccc1)C(=O)OC1CCCC1 (stereo partly drawn) [Example 108, (2S)-cyclopentyl 2-(((((2R,3S,4R,5S)-5-(4-aminopyrrolo[2,1-f][1,2,4]triazin-7-yl)-2-cyano-3,4-dihydroxytetrahydrofuran-2-yl)methoxy)(phenoxy)phosphoryl)amino)propanoate]	40.8	0.289	0.239	0.147	–
CCC(CC)COC(=O)[C@H](CC)NP(=O)(N[C@@H](CC)C(=O)OCC(CC)CC)OC[C@@]1(C#N)O[C@@H](c2ccc3c(N)ncnn23)[C@H](O)[C@@H]1O [Example 220]	–	–	–	–	EC50 [1, 10]: 29 µM; EC50 [2, 9]: 10.6 µM; EC50 [3, 11]: 0.34 µM; EC50 [4, 11]: 4.26 µM
C[C@@H](NP(=O)(OC[C@@]1(C#N)O[C@@H](c2ccc3c(N)ncnn23)[C@H](O)[C@@H]1O)Oc1ccccc1)C(=O)OCC(C)(C)C (stereo partly drawn) [Example 102, (2R)-neopentyl 2-(((((2R,3S,4R,5S)-5-(4-aminopyrrolo[2,1-f][1,2,4]triazin-7-yl)-2-cyano-3,4-dihydroxytetrahydrofuran-2-yl)methoxy)(phenoxy)phosphoryl)amino)propanoate]	> 100	16.7	> 5	9.95	–
C[C@H](NP(=O)(OC[C@@]1(C#N)O[C@@H](c2ccc3c(N)ncnn23)[C@H](O)[C@@H]1O)Oc1ccccc1)C(=O)O[C@H]1CCNC1 (stereo partly drawn) [Example 122, (2S)—(S)-pyrrolidin-3-yl 2-(((((2R,3S,4R,5S)-5-(4-aminopyrrolo[2,1-f][1,2,4]triazin-7-yl)-2-cyano-3,4-dihydroxytetrahydrofuran-2-yl)methoxy)(phenoxy)phosphoryl)amino)propanoate]	> 50	29.3	> 5	4.04	–
CC(C)[C@H](NC(=O)OC(C)(C)C)C(=O)OCCNP(=O)(OC[C@@]1(C#N)O[C@@H](c2ccc3c(N)ncnn23)[C@H](O)[C@@H]1O)Oc1ccccc1 (stereo partly drawn) [Example 139, (2S)-2-(((((2R,3S,4R,5S)-5-(4-aminopyrrolo[2,1-f][1,2,4]triazin-7-yl)-2-cyano-3,4-dihydroxytetrahydrofuran-2-yl)methoxy)(phenoxy)phosphoryl)amino)ethyl 2-((tert-butoxycarbonyl)amino)-3-methylbutanoate]	> 50	28.3	0.103	6.43	–
COCCOc1ccc(OP(=O)(N[C@@H](C)C(=O)OC(C)C)OC[C@@]2(C#N)O[C@@H](c3ccc4c(N)ncnn34)[C@H](O)[C@@H]2O)cc1 (stereo partly shown) [Example 53]	> 50	15.5	–	2.36	EC50 ([3]; human respiratory syncytial virus, NHBE, in Homo sapiens, 96 h): ≥ 5 µM
C[C@H](NP(=O)(OC[C@@]1(C#N)O[C@@H](c2ccc3c(N)ncnn23)[C@H](O)[C@@H]1O)Oc1ccccc1)C(=O)O[C@H]1CC[C@H](N)CC1 (stereo partly drawn) [Example 33, (1r,4S)-4-aminocyclohexyl ((((2R,3S,4R,5S)-5-(4-aminopyrrolo[2,1-f][1,2,4]triazin-7-yl)-2-cyano-3,4-dihydroxytetrahydrofuran-2-yl)methoxy)(phenoxy)phosphoryl)-L-alaninate]	> 50	27	2.68	1.91	–
